Assay type in all cases: functional
Holding throughout (conditions): read-out: IZ

Test [1] concerns Candida albicans. The test is described as follows: Antifungal activity against Candida albicans ATCC 10231 at 200 ug/ml by cup-plate method.
Test [2] relates to Candida albicans. Briefly: Antifungal activity against Candida albicans ATCC 10231 at 100 ug/ml by cup-plate method.
In test [3] the test system is Bacillus subtilis. The test is described as follows: Antibacterial activity against Bacillus subtilis ATCC 6633 at 200 ug/ml by cup-plate method.
Test [4] relates to Bacillus subtilis. Briefly: Antibacterial activity against Bacillus subtilis ATCC 6633 at 100 ug/ml by cup-plate method.
Test [5] deals with Staphylococcus aureus. The test is described as follows: Antibacterial activity against Staphylococcus aureus ATCC 9144 at 200 ug/ml by cup-plate method.
Test [6] has as its system Staphylococcus aureus. The test is described as follows: Antibacterial activity against Staphylococcus aureus ATCC 9144 at 100 ug/ml by cup-plate method.
Test [7] deals with Escherichia coli. The test is described as follows: Antibacterial activity against Escherichia coli ATCC 25922 at 200 ug/ml by cup-plate method.
Test [8] concerns Escherichia coli. The test is described as follows: Antibacterial activity against Escherichia coli ATCC 25922 at 100 ug/ml by cup-plate method.
Test [9] has as its system Pseudomonas aeruginosa. The test is described as follows: Antibacterial activity against Pseudomonas aeruginosa ATCC 9027 at 200 ug/ml by cup-plate method.
The test system of test [10] is Pseudomonas aeruginosa. Briefly: Antibacterial activity against Pseudomonas aeruginosa ATCC 9027 at 100 ug/ml by cup-plate method.

`O=C(c1cccnc1Nc1nc2c([N+](=O)[O-])cccc2s1)N1CCNC(Cl)C1Cl` (stereo not given): the zone of inhibition at 200 µg/mL in the test with Candida albicans [1] is 4 mm; in the test on Bacillus subtilis [3], 10 mm; in the test on Staphylococcus aureus [5], 10 mm; with Escherichia coli [7], 10 mm; in the test on Pseudomonas aeruginosa [9], 9 mm. Also, the zone of inhibition at 100 µg/mL with Candida albicans [2] was found to be 2 mm; in the test on Bacillus subtilis [4], 5 mm; in the test on Staphylococcus aureus [6], 8 mm; in the test on Escherichia coli [8], 9 mm; in the test with Pseudomonas aeruginosa [10], 8 mm.

As for `COc1ccc2nc(Nc3ncccc3C(=O)N3CCN(CCO)CC3)sc2c1`, the zone of inhibition at 200 µg/mL came out at 5 mm in the test on Candida albicans [1]; 4 mm in the test with Bacillus subtilis [3]; 9 mm in the test on Staphylococcus aureus [5]; 8 mm in the test with Escherichia coli [7]; 5 mm with Pseudomonas aeruginosa [9]. Further, the zone of inhibition at 100 µg/mL was 0 mm in the test on Candida albicans [2]; 0 mm in the test on Bacillus subtilis [4]; 8 mm in the test on Staphylococcus aureus [6]; 8 mm in the test with Escherichia coli [8]; 4 mm in the test on Pseudomonas aeruginosa [10].

For the compound `O=C(c1cccnc1Nc1nc2ccccc2s1)N1CCNC(Cl)C1Cl` (stereo not given), the zone of inhibition at 200 µg/mL in the test on Candida albicans [1] is 5 mm; in the test on Bacillus subtilis [3], 7 mm; in the test with Staphylococcus aureus [5] it was 7 mm; with Escherichia coli [7] it was 8 mm; in the test with Pseudomonas aeruginosa [9], 5 mm. Further, the zone of inhibition at 100 µg/mL in the test with Candida albicans [2] was 3 mm; in the test on Bacillus subtilis [4], 6 mm; in the test on Staphylococcus aureus [6], 5 mm; with Escherichia coli [8] it was 7 mm; with Pseudomonas aeruginosa [10], 4 mm.

Take `O=C(c1cccnc1Nc1nc2cc([N+](=O)[O-])ccc2s1)N1CCNC(Cl)C1Cl` (stereo not given): the zone of inhibition at 200 µg/mL is 4 mm in the test on Candida albicans [1]; 7 mm with Bacillus subtilis [3]; 9 mm in the test with Staphylococcus aureus [5]; 5 mm with Escherichia coli [7]; 6 mm in the test with Pseudomonas aeruginosa [9]. The zone of inhibition at 100 µg/mL in the test with Candida albicans [2] was 1 mm; in the test with Bacillus subtilis [4] it was 8 mm; in the test with Staphylococcus aureus [6], 6 mm; in the test with Escherichia coli [8], 4 mm; in the test with Pseudomonas aeruginosa [10], 5 mm.

Turning to `O=C(c1cccnc1Nc1nc2ccc([N+](=O)[O-])cc2s1)N1CCNC(Cl)C1Cl` (stereo not given), the zone of inhibition at 200 µg/mL in the test with Candida albicans [1] stood at 3 mm; with Bacillus subtilis [3], 7 mm; in the test on Staphylococcus aureus [5], 8 mm; in the test on Escherichia coli [7] it was 6 mm; with Pseudomonas aeruginosa [9], 8 mm. Besides, the zone of inhibition at 100 µg/mL was determined as 0 mm with Candida albicans [2]; 7 mm in the test on Bacillus subtilis [4]; 8 mm in the test with Staphylococcus aureus [6]; 6 mm in the test with Escherichia coli [8]; 6 mm in the test on Pseudomonas aeruginosa [10].

For `O=C(c1cccnc1Nc1nc2c(Cl)cccc2s1)N1CCNC(Cl)C1Cl` (stereo not given), the zone of inhibition at 200 µg/mL in the test on Candida albicans [1] is 6 mm; in the test with Bacillus subtilis [3], 6 mm; in the test on Staphylococcus aureus [5], 4 mm; in the test on Escherichia coli [7], 5 mm; in the test with Pseudomonas aeruginosa [9], 3 mm. Also, the zone of inhibition at 100 µg/mL amounted to 3 mm in the test with Candida albicans [2]; 3 mm in the test with Bacillus subtilis [4]; 3 mm in the test on Staphylococcus aureus [6]; 4 mm in the test on Escherichia coli [8]; 3 mm with Pseudomonas aeruginosa [10].

For the compound `O=C(c1cccnc1Nc1nc2cc(Cl)ccc2s1)N1CCNC(Cl)C1Cl` (stereo not given), the zone of inhibition at 200 µg/mL in the test with Candida albicans [1] amounted to 2 mm; in the test on Bacillus subtilis [3], 5 mm; in the test with Staphylococcus aureus [5], 0 mm; in the test with Escherichia coli [7], 3 mm; in the test with Pseudomonas aeruginosa [9] it was 2 mm. The zone of inhibition at 100 µg/mL with Candida albicans [2] came out at 1 mm; in the test on Bacillus subtilis [4], 5 mm; in the test with Staphylococcus aureus [6] it was 0 mm; in the test with Escherichia coli [8], 2 mm; in the test on Pseudomonas aeruginosa [10], 0 mm.

Consider `O=C(c1cccnc1Nc1nc2ccc(Cl)cc2s1)N1CCNC(Cl)C1Cl` (stereo not given), for which the zone of inhibition at 200 µg/mL in the test on Candida albicans [1] was 1 mm; in the test on Bacillus subtilis [3], 6 mm; in the test on Staphylococcus aureus [5], 10 mm; in the test with Escherichia coli [7] it was 9 mm; in the test on Pseudomonas aeruginosa [9] it was 8 mm. In addition, the zone of inhibition at 100 µg/mL in the test on Candida albicans [2] was 0 mm; in the test with Bacillus subtilis [4] it was 5 mm; in the test with Staphylococcus aureus [6], 7 mm; with Escherichia coli [8], 7 mm; with Pseudomonas aeruginosa [10], 8 mm.

On to `Cc1cccc2sc(Nc3ncccc3C(=O)N3CCNC(Cl)C3Cl)nc12` (stereo not given), for which the zone of inhibition at 200 µg/mL in the test on Candida albicans [1] was found to be 0 mm; in the test with Bacillus subtilis [3], 4 mm; with Staphylococcus aureus [5], 6 mm; in the test on Escherichia coli [7] it was 10 mm; in the test on Pseudomonas aeruginosa [9], 7 mm. Besides, the zone of inhibition at 100 µg/mL turned out to be 0 mm in the test with Candida albicans [2]; 4 mm in the test with Bacillus subtilis [4]; 4 mm in the test on Staphylococcus aureus [6]; 8 mm in the test with Escherichia coli [8]; 6 mm with Pseudomonas aeruginosa [10].

On to `Cc1ccc2sc(Nc3ncccc3C(=O)N3CCNC(Cl)C3Cl)nc2c1` (stereo not given), for which the zone of inhibition at 200 µg/mL with Candida albicans [1] came out at 3 mm; in the test with Bacillus subtilis [3], 7 mm; in the test with Staphylococcus aureus [5] it was 10 mm; with Escherichia coli [7] it was 7 mm; with Pseudomonas aeruginosa [9] it was 8 mm. The zone of inhibition at 100 µg/mL in the test on Candida albicans [2] was determined as 2 mm; in the test on Bacillus subtilis [4], 7 mm; in the test with Staphylococcus aureus [6], 8 mm; with Escherichia coli [8], 5 mm; in the test on Pseudomonas aeruginosa [10], 6 mm.

For the compound `Cc1ccc2nc(Nc3ncccc3C(=O)N3CCNC(Cl)C3Cl)sc2c1` (stereo not given), the zone of inhibition at 200 µg/mL in the test on Candida albicans [1] came to 5 mm; in the test with Bacillus subtilis [3] it was 0 mm; in the test with Staphylococcus aureus [5] it was 4 mm; with Escherichia coli [7] it was 3 mm; in the test with Pseudomonas aeruginosa [9] it was 0 mm. The zone of inhibition at 100 µg/mL is 2 mm in the test with Candida albicans [2]; 0 mm in the test with Bacillus subtilis [4]; 3 mm in the test on Staphylococcus aureus [6]; 3 mm with Escherichia coli [8]; 0 mm in the test on Pseudomonas aeruginosa [10].

For `COc1cccc2sc(Nc3ncccc3C(=O)N3CCNC(Cl)C3Cl)nc12` (stereo not given), the zone of inhibition at 200 µg/mL is 4 mm in the test on Candida albicans [1]; 9 mm with Bacillus subtilis [3]; 6 mm in the test with Staphylococcus aureus [5]; 4 mm in the test on Escherichia coli [7]; 8 mm in the test with Pseudomonas aeruginosa [9]. The zone of inhibition at 100 µg/mL with Candida albicans [2] stood at 3 mm; in the test on Bacillus subtilis [4] it was 8 mm; with Staphylococcus aureus [6] it was 6 mm; in the test with Escherichia coli [8], 0 mm; in the test with Pseudomonas aeruginosa [10], 7 mm.

Turning to `COc1ccc2nc(Nc3ncccc3C(=O)N3CCNC(Cl)C3Cl)sc2c1` (stereo not given), the zone of inhibition at 200 µg/mL was determined as 6 mm in the test with Candida albicans [1]; 2 mm in the test with Bacillus subtilis [3]; 6 mm with Staphylococcus aureus [5]; 9 mm with Escherichia coli [7]; 7 mm with Pseudomonas aeruginosa [9]. Further, the zone of inhibition at 100 µg/mL in the test with Candida albicans [2] was found to be 4 mm; with Staphylococcus aureus [6], 5 mm; in the test on Escherichia coli [8], 8 mm; with Pseudomonas aeruginosa [10], 4 mm.

Regarding `CC1(C)S[C@@H]2[C@H](NC(=O)[C@H](N)c3ccc(O)cc3)C(=O)N2[C@H]1C(=O)O` [AMOXICILLIN], the zone of inhibition at 200 µg/mL in the test on Bacillus subtilis [3] came to 29 mm; in the test with Staphylococcus aureus [5], 24 mm; with Escherichia coli [7], 28 mm; in the test on Pseudomonas aeruginosa [9], 27 mm. In addition, the zone of inhibition at 100 µg/mL in the test with Bacillus subtilis [4] turned out to be 16 mm; in the test on Staphylococcus aureus [6] it was 13 mm; in the test with Escherichia coli [8], 16 mm; in the test on Pseudomonas aeruginosa [10], 15 mm.

Regarding `C[C@@H]1[C@H](O)[C@@H](C)/C=C/C=C/C=C/C=C/C=C/C=C/C=C/[C@H](O[C@@H]2O[C@H](C)[C@@H](O)[C@H](N)[C@@H]2O)C[C@@H]2O[C@](O)(C[C@@H](O)C[C@@H](O)[C@H](O)CC[C@@H](O)C[C@@H](O)CC(=O)O[C@H]1C)C[C@H](O)[C@H]2C(=O)O` [AMPHOTERICIN B], the zone of inhibition at 200 µg/mL in the test with Candida albicans [1] was found to be 18 mm. Further, the zone of inhibition at 100 µg/mL in the test with Candida albicans [2] is 8 mm.

With `CC1(C)S[C@@H]2[C@H](NC(=O)[C@H](N)c3ccccc3)C(=O)N2[C@H]1C(=O)O` [AMPICILLIN], the zone of inhibition at 200 µg/mL with Bacillus subtilis [3] came out at 30 mm; in the test with Staphylococcus aureus [5], 28 mm; in the test with Escherichia coli [7] it was 30 mm; in the test with Pseudomonas aeruginosa [9] it was 31 mm. Besides, the zone of inhibition at 100 µg/mL is 17 mm in the test with Bacillus subtilis [4], 15 mm in the test on Staphylococcus aureus [6], 18 mm with Escherichia coli [8] and 18 mm with Pseudomonas aeruginosa [10].

In the case of `CC1(C)S[C@@H]2[C@H](NC(=O)Cc3ccccc3)C(=O)N2[C@H]1C(=O)O` [PENICILLIN G], the zone of inhibition at 200 µg/mL in the test with Bacillus subtilis [3] was found to be 25 mm; in the test with Staphylococcus aureus [5], 21 mm; in the test on Escherichia coli [7], 25 mm; with Pseudomonas aeruginosa [9], 22 mm. For the same compound, the zone of inhibition at 100 µg/mL in the test with Bacillus subtilis [4] was found to be 14 mm; with Staphylococcus aureus [6] it was 12 mm; with Escherichia coli [8], 14 mm; in the test on Pseudomonas aeruginosa [10], 13 mm.

The values above are taken from ChEMBL document CHEMBL3046819, “Synthesis and antimicrobial activity of new pyridine derivatives-I” (2011).
